Measured values from patent publication US7432242B2, “Inhibitors of RGS proteins” (The Regents of the University of Michigan, priority 2002, dated 2008).
Where a SMILES comes first, the peptide text is derived from it. Bridges are numbered along the chain shown (N, C = ends). Where no end group is shown, it is not given here.

How the values were obtained:
RGS4 = RGS4 (Homo sapiens, UniProt P49798); assay: Steady-state GTPase assay, RGS4-stimulated, CHO cell membranes expressing α2a AR; format: biochemical; design: key to Activity (inhibitory activity, relative scale): −: —(no inhibition); relative scale from—(no inhibition) to +++; settings: for IC50: steady-state membrane GTPase assay; for Activity (inhibitory activity, relative scale): inhibition of RGS4-mediated GTPase acceleration
Sequence of RGS4 (P49798 whole entry, species assumed): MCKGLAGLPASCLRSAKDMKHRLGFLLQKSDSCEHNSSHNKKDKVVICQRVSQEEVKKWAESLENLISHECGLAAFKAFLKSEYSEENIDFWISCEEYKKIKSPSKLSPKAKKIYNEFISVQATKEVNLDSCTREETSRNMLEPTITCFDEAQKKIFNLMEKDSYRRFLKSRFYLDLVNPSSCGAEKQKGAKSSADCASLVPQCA
Description: (§1) In some embodiments, the membrane assay comprises a GTPase assay (See e.g, Berman et al., J. Biol. Chem., 271:27209 [1996] and Berman et al., Cell 86:445 [1996]). In such embodiments, α2A adrenergic receptor expressing membranes are pre-incubated with γ-^32P GTP and RGS proteins. In some embodiments, membranes contain both α2A adrenergic receptor and Gαo subunits, allowing measurement of both Gi and Go-coupled RGS proteins. In some embodiments, a steady-state GTPase assay is utilized to assay RGS inhibitors (See e.g., Wise and Milligan, J. Biol. Chem., 272:24673 [1997]).
This example describes a novel method of assaying for inhibitors of RGS-mediated GTPase Acceleration. A modified version of the [^35S] GTPγS binding method described in Wieland et al., 1994 (Wieland et al., Methods Enzymol. 237:3 [1994]) was utilized, with the exception that an RGS protein was included to enhance the receptor stimulation of GTPγS binding. RGS-mediated enhancement of receptor-stimulated [^35S]GTPγS binding was determined in CHO cell membranes expressing high densities (10-20 pmol/mg) of receptor. The method is not limited to the alpha 2a adrenergic receptor or the CHO membrane described herein. The membrane can be from other cell types and/or expressing other G protein coupled receptors (e.g., including, but not limited to, other Gi coupled receptors).
The assay buffer was 50 mM Tris, 5 mM MgCl2, 1 mM EDTA, 100 mM NaCl, 1 mM DTT, pH 7.6. The reaction mixture also contained the following components. Some preferred embodiments include at least one of the components marked with an *. • 1. High nanomolar or low micromolar concentrations (typically 1 μM) of GDP.* • 2. 4 μg of Chinese hamster ovary (CHO) membranes expressing the alpha 2a adrenergic receptor (α2AAR) at a receptor density of ˜10-20 pmol/mg. α2AAR-CHO membranes were prepared as previously described (Wade et al., Mol. Pharmacol. 56: 1005 [1999]). Membranes were re-suspended in Tris/MgCl2/EGTA (TME) buffer (50 mM Tris, 10 mM MgCl2, 1 mM EGTA, pH 7.6) and were aliquoted before being frozen in liquid N2 and stored at −80° C. until use. The receptor density in the α2aAR-CHO membranes was determined by [^3H] yohimbine binding and Bradford assay (Bradford, Anal. Biochem. 72: 248 [1976]). • 3. 0.2 nM-50 nM [^35S]GTPγS. A low concentration with respect to the higher concentrations of G protein and GTP utilized is necessary*. • 4. Saturating concentration of agonist for the receptor type utilized. UK 14,304 (10 μM). • 5. RGS proteins at μM or high nM ranges. • 6. GTP at high nM or low μM ranges. This is the most critical component of this method, since the massive GTP hydrolysis accelerated by RGS promotes formation of the empty DRG state which is detected by the low concentration of [^35S]GTPγS.*
Activity was measured by use of CHO cell membranes expressing the α2a AR at high levels (10-20 pmol/mg) described in Example 1 above.
Subsequently, a series of constrained peptides (Table 3) was prepared and the inhibitory activity tested. The inhibitory activity is shown in Table 3 as a relative scale from—(no inhibition) to +++.

RGS8 = target: T1, RGS8 (Homo sapiens, UniProt P57771); assay: Steady-state membrane GTPase assay, RGS8-stimulated; format: biochemical
T1 sequence (P57771 1-180): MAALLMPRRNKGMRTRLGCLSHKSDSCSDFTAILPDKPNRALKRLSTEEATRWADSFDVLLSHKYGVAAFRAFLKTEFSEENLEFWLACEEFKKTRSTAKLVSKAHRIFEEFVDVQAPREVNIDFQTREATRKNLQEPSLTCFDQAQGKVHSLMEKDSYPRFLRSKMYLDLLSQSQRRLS
Description: as §1
In addition to the inhibitory activity against RGS4 mediated GTPase acceleration, three of the peptides found to be most inhibitory against RGS4 were tested for their ability to inhibit RGS8 stimulated GTPase activity.

Molecule	IC50 (RGS4) [µM]	Activity (inhibitory activity, relative scale) (RGS4)	other results
CC[C@H](C)[C@@H]1NC(=O)CNC(=O)[C@H]([C@@H](C)O)NC(=O)[C@@H](NC(=O)[C@H](CCCCN)NC(=O)[C@@H](NC(C)=O)C(C)C)CCCNC(=O)CC[C@@H](C(=O)N[C@@H](CCC(=O)O)C(N)=O)NC1=O [YJ13(lactam)] (HELM PEPTIDE1{[ac].V.K.[Orn].T.G.I.E.E.[am]}$PEPTIDE1,PEPTIDE1,4:R3-8:R3$$$V2.0)	25		IC50 (RGS8): 161 µM
CC[C@H](C)[C@@H]1NC(=O)CNC(=O)[C@H]([C@@H](C)O)NC(=O)[C@@H](NC(=O)[C@H](CCCCN)NC(=O)[C@@H](NC(C)=O)C(C)C)CSSC[C@@H](C(=O)N[C@@H](CCC(=O)O)C(N)=O)NC1=O [Yjb] (HELM PEPTIDE1{[ac].V.K.C.T.G.I.C.E.[am]}$PEPTIDE1,PEPTIDE1,4:R3-8:R3$$$V2.0)	26		
ES2(Et) (VKCTGFCE; cysteine pairing not given here; also: Et modification)		+++	
VKTTGIVE			Inhibition of RGS-mediated GTPase acceleration (in words) (RGS4; RGS-stimulated GTPase activity): no activity
YJ5(Et) (KCTSICE; cysteine pairing not given here; also: Et modification)		−	
YJ6(Et) (VKCTSICE; bridge 3-7; also: Et modification, place not given here, cross-link 3-7: disulfide, thioether or lactam)		−	

More lines, main results first:

IC50 (RGS4) [µM]	Activity (inhibitory activity, relative scale) (RGS4)	Molecule	other results
88		CC[C@H](C)[C@@H]1NC(=O)CNC(=O)[C@H]([C@@H](C)O)NC(=O)[C@@H](NC(=O)[C@H](CCCCN)NC(=O)[C@@H](NC(C)=O)C(C)C)CSCCSC[C@@H](C(=O)N[C@@H](CCC(=O)O)C(N)=O)NC1=O [JMRAc(Et)] (HELM PEPTIDE1{[ac].V.K.C.T.G.I.C.E.[am]}|CHEM1{[C(C[*:2])[*:1]]}$PEPTIDE1,CHEM1,4:R3-1:R1|PEPTIDE1,CHEM1,8:R3-1:R2$$$V2.0)	
260		CC[C@H](C)[C@@H]1NC(=O)CNC(=O)[C@H]([C@@H](C)O)NC(=O)[C@@H](NC(=O)[C@H](CCCCN)NC(=O)[C@@H](NC(C)=O)C(C)C)CCC(=O)NCCCC[C@@H](C(=O)N[C@@H](CCC(=O)O)C(N)=O)NC1=O [YJ14(lactam)] (HELM PEPTIDE1{[ac].V.K.E.T.G.I.K.E.[am]}$PEPTIDE1,PEPTIDE1,4:R3-8:R3$$$V2.0)	IC50 (RGS8): 840 µM
79		CC[C@H](C)[C@@H]1NC(=O)CNC(=O)[C@H]([C@@H](C)O)NC(=O)[C@@H](NC(=O)[C@H](CCCCN)NC(=O)[C@@H](NC(C)=O)C(C)C)CSCSC[C@@H](C(=O)N[C@@H](CCC(=O)O)C(N)=O)NC1=O [Yja] (HELM PEPTIDE1{[ac].V.K.C.T.G.I.C.E.[am]}|CHEM1{[C([*:1])[*:2]]}$PEPTIDE1,CHEM1,4:R3-1:R1|PEPTIDE1,CHEM1,8:R3-1:R2$$$V2.0)	
	−	JO1(Et) (VKCTGICE; cysteine pairing not given here; also: Et modification)	
	+++	YJ4(Et) (VKCTSICE; bridge 3-7; also: Et modification, place not given here, cross-link 3-7: disulfide, thioether or lactam)	
	−	YJ15(Et) (VKCTGICE; bridge 3-7; also: Et modification, place not given here, cross-link 3-7: disulfide, thioether or lactam)	
